Data published in patent US20220257805A1, “PHARMACEUTICAL FORMULATIONS AND METHODS FOR DELIVERING A THERAPEUTIC, DIAGNOSTIC, OR IMAGING AGENT TO CD206” (Syracuse University, priority 2019, published 2022).
“Also recorded” adds a separate entry of the source.

Columns and labels:
[1] = target: T1, human gastric IF (Homo sapiens, UniProt P27352); experiment: IF binding affinity, radiometric chase assay using 57Co-B12; settings: cold tracer
T1 construct: purchased Xeragenx LLC (St. Louis, Mo., USA); host or cells: Arabidopsis thaliana
T1 sequence (P27352 19-417): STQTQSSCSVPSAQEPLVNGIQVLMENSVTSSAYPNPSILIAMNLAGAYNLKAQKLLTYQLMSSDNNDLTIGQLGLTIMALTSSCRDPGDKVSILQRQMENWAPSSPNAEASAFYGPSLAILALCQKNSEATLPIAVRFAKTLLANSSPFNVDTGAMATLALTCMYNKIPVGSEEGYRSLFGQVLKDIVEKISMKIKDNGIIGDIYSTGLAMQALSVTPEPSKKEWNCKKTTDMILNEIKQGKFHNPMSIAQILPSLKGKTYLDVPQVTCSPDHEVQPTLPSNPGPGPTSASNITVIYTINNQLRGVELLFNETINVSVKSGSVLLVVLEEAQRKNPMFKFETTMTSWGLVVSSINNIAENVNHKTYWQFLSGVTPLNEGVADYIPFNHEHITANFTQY
Description: To confirm IF binding of ^89Zr-B12, a radiometric chase assay[15] was completed with a ‘cold’ ^91Zr bound to B12 tracer (^91Zr-B12) and compared to free B12, as cyanocobalamin (CN-B12) (FIG. 2). ^91Zr-B12 was made using B12-DFO and chelated to ^91ZrCl4 at pH 7-7.5. IF binding of ^91Zr-B12 was maintained at low nanomolar levels (1.57 nM), similar to CN-B12 control (1.36 nM).
IF binding affinities: To confirm that ^89Zr-B12 will bind to IF, a radiometric chase assay, using ^57Co-B12 was completed (as previously reported)[15] with a cold tracer (^91Zr-B12) and compared to free B12, as cyanocobalamin (CN-B12). Zr-B12 was made using B12-DFO and chelated to ZrCl4 at pH 7.5.

[2] = test system: HepG2 cells; experiment: Flow cytometry of uptake in HepG2 cells (ASGPR positive); format: cell-based; settings: 100 nM in HBSS
Description: (§1) Cellular association via the typical holo-IF target receptor, CUBN, was conducted in CUBN positive, CD206 negative (see western blot, FIG. 10) BN16 (Brown Norway rat yolk) cells via flow cytometry using fluorescent B12-Cy5 to show functionalization of the IF-B12 complex in vitro (FIG. 3).
(§2) Flow cytometry: Flow cytometry analyses were carried out on a Becton Dickinson LSRII Cell Analyzer.
(§3) Cell culture: Cell lines J774A.1 (ATCC TIB-67; CD206 positive), CHO-K1 (ATCC CCL-61; control line) and HepG2 (SIGMA 85011430; ASGPR positive) were obtained from the American Type Culture Collection (ATCC). BN16 cells (cubilin positive) were kindly provided by Prof. Pierre Verroust (INSERM, Paris, France). J774A.1 and BN16 cells were cultured as adherent monolayers in DMEM supplemented with 10% FBS and 1% pen/strep (Penicillin-streptomycin solution with 10,000 units penicillin and 10 mg/mL streptomycin in 0.9% NaCl obtained from Thermo Fisher). CHO-K1 were cultured as adherent monolayers in F12-K supplemented with 10% FBS and 1% pen/strep. Cells were incubated at 37° C. with 5% C02. Hank's balanced salt solution (HBSS) was purchased from Sigma. […]
(§4) Flow cytometry measurements of cellular internalization: Cells were plated on a 6-well plate and allowed to adhere for at least 24 h until at least 80% confluency. […] All cells were excited at 640 nm and detected at 660±20 nm.

[3] = test system: BN16 cells; experiment: Flow cytometry of cellular association in BN16 cells (CUBN positive, CD206 negative); format: cell-based, Brown Norway rat; settings: 200 nM, HBSS, 1 h
Description: as §1, §2, §3, §4

[4] = test system: J774A.1 cells; experiment: Flow cytometry of uptake in J774A.1 macrophage cells (CUBN-, CD206+), with or without mannan block; format: cell-based
Description: Adding mannan (2 mg/mL), 45 minutes prior to, and concomitant with IF-B12-Cy5 incubation, reduced IF-B12-Cy5 uptake (FIG. 3) supporting a mannose receptor mediated process.
as §2
Cell culture: Cell lines J774A.1 (ATCC TIB-67; CD206 positive), CHO-K1 (ATCC CCL-61; control line) and HepG2 (SIGMA 85011430; ASGPR positive) were obtained from the American Type Culture Collection (ATCC). BN16 cells (cubilin positive) were kindly provided by Prof. Pierre Verroust (INSERM, Paris, France). J774A.1 and BN16 cells were cultured as adherent monolayers in DMEM supplemented with 10% FBS and 1% pen/strep (Penicillin-streptomycin solution with 10,000 units penicillin and 10 mg/mL streptomycin in 0.9% NaCl obtained from Thermo Fisher). CHO-K1 were cultured as adherent monolayers in F12-K supplemented with 10% FBS and 1% pen/strep. Cells were incubated at 37° C. with 5% C02. Hank's balanced salt solution (HBSS) was purchased from Sigma. Charcoal stripped fetal bovine serum (FBS) and were purchased from Sigma.
as §4

[5] = test system: CHO-K1 cells; experiment: Flow cytometry of uptake in CHO-K1 cells (CUBN and CD206 free); format: cell-based, Chinese hamster; settings: 100 nM in HBSS
Description: as §1, §2, §3, §4

Substance | Kd [1] [nM] | uptake / internalization (flow cytometry) [2] | cellular association (flow cytometry) at 4° C. ([3]; 4° C.) | cellular association (flow cytometry) ([3]; 37° C.) | binding / uptake (flow cytometry) ([4]; 200 nM, HBSS, 1 h, 37° C.) | uptake with mannan block ([4]; mannan 2 mg/mL 45 minutes prior to and concomitant with incubation) | uptake / internalization (flow cytometry) [5]
cyanocobalamin [CN-B12] | 1.36 | – | – | – | – | – | –
IF-B12-Cy5: B12-Cy5 bound to recombinant human intrinsic factor (IF-B12 complex) | – | not internalized | Reduction in binding (or internalization) | significant association | binding | reduced; also recorded: near complete block in uptake | Neither compound was internalized
